Entries after “also recorded” stand apart in the source; their conditions may differ.
Columns and labels:
[1] = test system: A549 cells; assay: Combination index study with cisplatin (Chou-Talalay), crystal violet; type: cell-based; conditions: for Interaction with cisplatin, sequential treatment: A549, cisplatin 24 h, then SMI 24 h
Protocol: Synergy with cisplatin—Analyses thus far indicate that inhibition of RPA is effective in eliciting effects consistent with inhibition of RPAs role in cell cycle progression and DNA replication. To assess if SMI treatment impacts RPAs role in DNA repair, how MCI13E or MCI13F treatment influences cellular sensitivity to cisplatin was assessed. […] Cisplatin-induced DNA damage is primarily repaired via NER and homologous recombination. […] Initially, a concurrent approach, similar to that described for another RPA SMI, TDRL-505 (1) was used. Briefly, A549 cells were treated for 48 hours with MCI13E, cisplatin, or combination treatment, with viability determined via crystal violet staining. […] Next, a sequential treatment protocol was used, first treating cells with cisplatin for 24 hours, then adding the SMI and incubating for an additional 24 hours.
Combination Index—Studies Combination index studies, performed with combination SMI and cisplatin treatment, were used to determine the level of synergy or antagonism between the two compounds. Referring now to FIG. 19A, a schematic illustrating Sequential treatment with cisplatin and MCI13E, and FIG. 19B, a schematic illustrating concurrent treatment with cisplatin and MCI13E. Cells received the same concentration of cisplatin or MCI13E but the time the cells were treated with cisplatin varied whereas treatment time with MCI remained the same between the two treatment methods.
Briefly, A549 cells were plated as described above in 24-well dishes (5×10^4 cells per well) and treated either concurrently or sequentially with single agent cisplatin or MCI treatment or with combination treatments. […] Following 48 hours of total treatment cells were analyzed for viability using the crystal violet assay described above and combination index values were calculated based on the Chou and Talalay method (15) as we have previously described (1,23).

[2] = target: T1, RPA DBD-A/B (Homo sapiens, UniProt P27694); assay: EMSA DNA binding assay, RPA DBD-A/B construct
T1 construct: made in house; host or cells: E. coli BL21(DE3)
Protocol: DBD-A/B. The sequence encoding the RPA p70 DNA binding domains A and B were subcloned from the hrRPA plasmid (provided by Dr. Marc Wold, University of Iowa) into the pET15b (Novagen) vector and the protein was expressed in BL21(DE3) cells (Stratagene) as previously described. Briefly, cells were grown to an OD600 of 0.8, induced with 0.5 mM isopropyl-1-thio-β-D-galactopyranoside (IPTG) at 37° C. for 2-3 hours. Small scale DBD-A/B preparations were obtained from 1 L cultures and following induction, cells were harvested by centrifugation at 700×g for 30 minutes at 4° C. The pellets were suspended in Buffer A (20 mM Tris, pH 7.5, 10% glycerol, 500 mM NaCl, 10 mM β-mercaptoethanol (BME) and 1 μg/mL phenylmethanesulfonylfluoride (PMSF), leupeptin and pepstatin) at 1 mL/gram of cells. The cells were lysed by sonication and insoluble material sedimented at 15,000×g for 30 minutes at 4° C. The supernatant was then loaded onto a 10 mL phosphocellulose column, equilibrated with Buffer A, and the flow-through material collected. Imidazole was added to 5 mM to the flow through which was then loaded onto a 2 mL nickel-NTA-agarose column. The column was then washed with Buffer A containing 50 mM imidazole after which protein was eluted from the column using a gradient from 50-500 mM imidazole. Fractions were analyzed for protein content using Bradford and SDS-PAGE analysis in addition to assessment of DNA binding activity as determined by anisotropy. Fractions containing the DBD-A/B protein were pooled and dialyzed overnight in Buffer B (1 mM HEPES, pH 7.2, 10 mM dithiothreitol (DTT), 50 mM NaCl and 1 μg/mL PMSF, pepstatin and leupeptin) and aliquots stored at −80° C.
RPA and DBD-A/B Binding. EMSAs were performed as previously described (22) using a 30-base purine rich ssDNA substrate (3Pc3). […] Gels were dried and quantified via phosphorimager analysis and ImageQuant software (Molecular Dynamics).

[3] = test system: H460 cells; assay: Crystal violet cell viability assay, H460; type: cell-based
Protocol: Referring now to FIG. 11A. Gel showing effect of MCI13E on DNA-RPA binding. […] Cytotoxicity was analyzed via crystal violet analysis as described in “methods” 48 hours following MCI13E treatment. Data represent the average and standard deviation of four replicate experiments with each replicate containing triplicate determinations and the circles represent data from H460 cells and squares A549 cells. Referring now to FIG. 11C. Graph of MCI13E induced death via apoptosis in NSCLC cell lines. Cell were treated with the indicated concentrations of MCI13E for 48 hours and analyzed for the induction of apoptosis via Annexin V/PI staining Referring now to FIG. 11D. Graph of cell survival as a function of [MCI1EC]. Percent survival was calculated for each cell line using untreated cells as a control. Data presented are the average and standard deviation from four replicate experiments. Experiments were performed in non-small cell lung cancer (NSCLC) cell lines A549 (squares), an adenocarcinoma, and the large cell carcinoma H460 cell line (circles).
Cell Viability Assays—A crystal violet cell viability assay was performed to determine cytotoxicity of SMI. Lung cancer cell lines, A549 and H460, were plated in 24-well dishes at 5×10^4 total cells. Forty-eight hours after plating, the cells were treated for […] with variable concentrations of SMIs. The media was aspirated, cells washed with 500 μl of PBS/EDTA and stained for 10 minutes with crystal violet solution (50% Ethanol, 0.75% crystal violet). Stained cells were resuspended in 500 μl DMSO containing 1% SDS and absorbance was measured at 590 nm in a SpectraMax M5 plate reader (Molecular Devices, Sunnyvale, Calif.) and analyzed using SoftMax Pro 5.2. Percent viability is taken as an absorbance percentage against control untreated cells. Values plotted represent four separate plate replicates and each plate replicate contained three assay replicates per plate.

T1 sequence (P27694 181-422 limits assumed): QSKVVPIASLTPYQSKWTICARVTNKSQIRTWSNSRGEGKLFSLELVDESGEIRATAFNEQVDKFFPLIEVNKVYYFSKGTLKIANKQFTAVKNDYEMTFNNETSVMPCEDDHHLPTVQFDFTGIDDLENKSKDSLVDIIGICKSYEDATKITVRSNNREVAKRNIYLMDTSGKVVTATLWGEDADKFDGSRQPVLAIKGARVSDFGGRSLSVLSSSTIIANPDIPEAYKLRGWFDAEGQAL

Compound | Interaction with cisplatin, concurrent treatment ([1]; A549, 48 hours together) | Interaction with cisplatin, sequential treatment [1] | Inhibition of DBD-A/B DNA binding [2] | IC50 ([3]; 48 hours, crystal violet) | IC50 ([3]; 48 hours after exposing the cells)
CC1(C)C2CCC1(C)C(OC(=O)CBr)C2 (racemic) [MCI13E, (+/−)-Isobornyl bromoacetate] | antagonistic effect | synergizing with cisplatin at higher dosing concentrations | no inhibitory activity; also recorded: completely ineffective | ~5 µM | 
CC1(C)C2CCC1(C)C(OC(=O)CI)C2 (racemic) [MCI13F, (+/−)-Isobornyl iodoacetate] |  | synergy with cisplatin at all tested concentrations | no inhibitory activity; also recorded: completely ineffective | ~5 µM | 4 µM

From patent publication US9757350B2, “Small molecule inhibitors of replication protein A that also act synergistically with cisplatin” (Indiana University Research and Technology Corp., priority 2010, dated 2017)
